Results: PMC8197361, “Assessing the Interactions of Statins with Human Adenylate Kinase Isoenzyme 1: Fluorescence and Enzyme Kinetic Studies” (International Journal of Molecular Sciences, 2021)
Where two headings read alike, the source gives them in different places.

Experiments:
[1] = target: T1, human adenylate kinase isoenzyme 1 (hAK1) (Homo sapiens, UniProt P00568); assay: Fluorescence quenching of hAK1 intrinsic (tyrosine) fluorescence by statins, one-site binding model; conditions: read-out: Kd (dissociation constant)
T1 construct: thrombin recognition site (C); 6xHis-tag (C); made in house; host or cells: E. coli BL21-CodonPlus(DE3)-RIL, pET-3a(+)
T1 sequence (P00568 1-194): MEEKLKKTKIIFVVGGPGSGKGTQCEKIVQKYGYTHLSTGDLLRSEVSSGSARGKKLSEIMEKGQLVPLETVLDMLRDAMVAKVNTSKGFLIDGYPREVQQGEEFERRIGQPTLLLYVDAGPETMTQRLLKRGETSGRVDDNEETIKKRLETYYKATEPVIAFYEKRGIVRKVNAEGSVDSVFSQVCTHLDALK
Protocol: The fluorescence emission spectra and plots of F versus [L] for the hAK1 quenching process at 20 and 25 °C are presented in Figure S2, while the emission spectra of hAK1, buffer (HEPES-NaOH) and five statins are shown in Figure S3. To analyze the quenching data upon the formation of an hAK1-statin complex, we used the following equation, which assumes a 1:1 stoichiomery:(1) PL/Pt=Pt+La+Kd−(Pt+La+Kd)^2−4PtLa/2Pt where Kd is the dissociation constant, [P]t is the concentration of protein, [L]a is the total concentration of the ligand, and [PL] it the concentration of protein-ligand complex.
The obtained fluorescence data were fitted to the one-site binding model with an applied nonlinear least-squares regression using OriginPro software (Figure 3).
Measurements were recorded in the range of 300–600 nm after excitation at λ = 289 nm at 20, 25 and 37 °C. Stock solutions of all statins were prepared in ethanol. The samples were prepared in 2 mL Eppendorf tubes and contained hAK1 at a concentration of 2 µM alone or with a statin at the following concentrations: 2, 4, 8, 16, 24, 32 and 40 µM, and 25 mM HEPES-NaOH (pH 7.5) was added to each tube, up to 2 mL. Then, the sample was transferred into the quartz cell and the spectrum was recorded. The emission spectra were measured three times. The fluorescence spectra of hAK1 in presence of statins were corrected for the inner filter effect using the following equation [63, 64]:(2) Fcor=Fobs∗ 10^AλEx+AλEm/2 where Fcor is the corrected fluorescence intensity and Fobs is the observed fluorescence intensity, AλEx is the absorption value at the excitation wavelength and AλEm is the absorption value at the emission wavelength. The fluorescence data were fitted by applying a nonlinear least-squares regression using OriginPro software Version 2016 (OriginLab Corporation, Northampton, MA, USA).

[2] = target: T1, human adenylate kinase isoenzyme 1 (hAK1); assay: Adenylate kinase activity assay and enzyme inhibition studies (RP-HPLC), hAK1; type: biochemical; conditions: for IC50: 37 °C
Protocol: The reaction mixture for ATP synthesis contained 2 mM MgCl2, 1 mM ADP in 10 mM HEPES-NaOH, pH 7.5. The reaction mixture for ADP synthesis was composed of 2 mM MgCl2, 1 mM AMP and ATP each, in 10 mM HEPES-NaOH, pH 7.5. […] Studies on the statin inhibition mode were performed using varying concentrations of ADP as a substrate (from 0.2 to 1.0 mM) at different fixed concentrations of statin (0, 150, 300 and 450 µM). Adenylate kinase activity measurement was carried out in 50 μL of the reaction mixture for 5–10 min at 37 °C. The reaction was terminated by the addition of 50 μL of 1 M HClO4. After 5 min incubation on ice, samples were centrifuged at 15,000× g for 5 min at 4 °C. Then, 50 μL of the obtained supernatant was neutralized with 25 μL of 1 M KOH and delipidated by shaking with n-heptane (1:5 v/v). The samples were centrifuged as above, and subsequently, adenine nucleotide concentrations were analyzed by the RP-HPLC (reversed-phase high-performance liquid chromatography) method as previously described. Briefly, purine nucleotides were separated in isocratic conditions on the Chromolith Performance RP-18e column, 4.6 mm × 100 mm (Merck, Darmstadt, Germany) using the Shimadzu Prominence LC (Kyoto, Japan) equipped with pump (LC-20AD), autosampler (SIL-20AC), column thermostat (CTO-10AS) and photodiode array detector (SPD-M20A). HPLC system control, data acquisitions and processing were done with LabSolutions software. The samples were eluted using 0.1 M phosphate buffer, pH 7.0 containing 25 mM TBA, 5 mM EDTA and 3% methanol. ADP and ATP produced during the AK-catalyzed reaction were detected at λ = 260 nm based on the retention times of standard nucleotide solutions. The AK enzymatic activity was determined by quantifying the product concentration using correlation coefficients calculated from ADP and ATP calibration curves. One unit (U) of AK activity is defined as the amount of the enzyme that catalyzes the production of 1.0 μmole of ADP or ATP per minute at 37 °C, under the assay conditions specified above. The specific activity of AK was calculated as the number of units per milligram of protein. The Lineweaver–Burk plot was used to present enzyme-substrate reactions with and without statin, where the y-intercept is equivalent to the inverse of Vmax and the x-intercept represents −1/KM. The calculation of the IC50 values was performed using GraphPad Prism 8 Software (San Diego, CA, USA).

serum AK = tested on: serum AK; set-up: method as in PMID 18576946; conditions: 0.5 mM AMP and 0.8 mM ATP as substrates; cited from earlier work
[3] = tested on: endothelial cell-surface AK; set-up: method as in PMID 18576946; conditions: 0.5 mM AMP and 0.8 mM ATP as substrates; cited from earlier work
[4] = target: T2, adenylate kinase from Geobacillus stearothermophilus (AKst) (Geobacillus stearothermophilus, UniProt P27142); assay: Adenylate kinase activity assay in the presence of statins, AKst (long type AK); type: biochemical; conditions: same drug concentration range as in hAK1 experiments; ADP or ATP and AMP as substrates, 1 mM each
T2 construct: made in house; host or cells: E. coli BL21-CodonPlus(DE3)-RIL, pET-3a(+)
T2 sequence (P27142 whole entry): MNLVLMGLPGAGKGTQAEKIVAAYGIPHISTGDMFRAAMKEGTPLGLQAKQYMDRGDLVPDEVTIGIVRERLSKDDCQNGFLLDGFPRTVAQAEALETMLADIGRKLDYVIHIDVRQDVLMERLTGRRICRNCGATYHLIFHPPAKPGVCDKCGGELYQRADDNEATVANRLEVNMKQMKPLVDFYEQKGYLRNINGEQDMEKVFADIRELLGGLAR
Protocol: Next, we measured the enzymatic activity of AKst in the presence of RVS and SVS at the same drug concentration range as in the hAK1 experiments (Figure S4). […] This region has limited accessibility in AKst due to the presence of a markedly bigger LID domain as compared to hAK1, which may consequently prevent the binding of statins to AKst.
The reaction mixture for ATP synthesis contained 2 mM MgCl2, 1 mM ADP in 10 mM HEPES-NaOH, pH 7.5. The reaction mixture for ADP synthesis was composed of 2 mM MgCl2, 1 mM AMP and ATP each, in 10 mM HEPES-NaOH, pH 7.5. […] Studies on the statin inhibition mode were performed using varying concentrations of ADP as a substrate (from 0.2 to 1.0 mM) at different fixed concentrations of statin (0, 150, 300 and 450 µM). […] The samples were centrifuged as above, and subsequently, adenine nucleotide concentrations were analyzed by the RP-HPLC (reversed-phase high-performance liquid chromatography) method as previously described. […] ADP and ATP produced during the AK-catalyzed reaction were detected at λ = 260 nm based on the retention times of standard nucleotide solutions. The AK enzymatic activity was determined by quantifying the product concentration using correlation coefficients calculated from ADP and ATP calibration curves. […] The specific activity of AK was calculated as the number of units per milligram of protein. […]

[5] = 20 °C, 2 µM hAK1, 25 mM HEPES-NaOH pH 7.5
[6] = 25 °C, 2 µM hAK1, 25 mM HEPES-NaOH pH 7.5
[7] = 37 °C, 2 µM hAK1, 25 mM HEPES-NaOH pH 7.5
[8] = 1 mM ADP, ATP synthesis direction, read-out: IC50 (ADP as a Substrate)
[9] = 1 mM AMP and ATP each, ADP synthesis direction, read-out: IC50 (ATP + AMP as Substrates)

| Kd [1, 5] [µM] | Kd [1, 6] [µM] | Kd [1, 7] [µM] | IC50 [2, 8] [µM] | IC50 [2, 9] [µM] | IC50 ([2]; ADP or ATP + AMP as substrates, read-out: IC50 values in both directions of the hAK1-catalyzed reaction) [µM] | Structure (SMILES) | IC50 (serum AK) [µM] | IC50 [3] [µM] | hAK1 inhibition mode (Lineweaver-Burk plot) ([2]; ADP 0.2 to 1.0 mM, fixed statin concentrations 0, 150, 300 and 450 µM) | hAK1 inhibition ([2]; RVS at a concentration above 200 μM) [%] | Effect on the AKst enzymatic activity [4] | Kd ([1]; 37 °C) [µM] |
| --- | --- | --- | --- | --- | --- | --- | --- | --- | --- | --- | --- | --- |
| 16 ± 2.1 | 27.2 ± 6.8 | 29.5 ± 3.7 | 223 ± 34 | 237 ± 31 | > 200 | CC(C)c1c(C(=O)Nc2ccccc2)c(-c2ccccc2)c(-c2ccc(F)cc2)n1CC[C@@H](O)C[C@@H](O)CC(=O)O [AVS, Atorvastatin] | – | – | – | – | – | – |
| – | – | – | – | – | – | Nc1ncnc2c1ncn2[C@@H]1O[C@H](COP(=O)(O)OP(=O)(O)OP(=O)(O)OP(=O)(O)OP(=O)(O)OC[C@H]2O[C@@H](n3cnc4c(N)ncnc43)[C@H](O)[C@@H]2O)[C@@H](O)[C@H]1O [Ap5A, P^1,P^5-di(adenosine-5′)pentaphosphate] | 6.3 | 6 | – | – | – | – |
| 17.4 ± 2 | 23.1 ± 4 | 26.6 ± 5.5 | 126 ± 7 | 156 ± 11 | – | CC(C)n1c(/C=C/C(O)CC(O)CC(=O)O)c(-c2ccc(F)cc2)c2ccccc21 (stereo not drawn) [FVS, Fluvastatin] | – | – | – | – | – | – |
| 19.4 ± 4.1 | 26.4 ± 6.2 | 28.6 ± 8.2 | 95 ± 19 | 211 ± 33 | – | CC[C@H](C)C(=O)O[C@H]1C[C@H](O)C=C2C=C[C@H](C)[C@H](CC[C@@H](O)C[C@@H](O)CC(=O)O)[C@H]21 [PVS, Pravastatin] | – | – | – | – | – | – |

| Structure (SMILES) | Kd [1, 5] [µM] | Kd [1, 6] [µM] | Kd [1, 7] [µM] | IC50 [2, 8] [µM] | IC50 [2, 9] [µM] | IC50 ([2]; ADP or ATP + AMP as substrates, read-out: IC50 values in both directions of the hAK1-catalyzed reaction) [µM] | IC50 (serum AK) [µM] | IC50 [3] [µM] | hAK1 inhibition mode (Lineweaver-Burk plot) ([2]; ADP 0.2 to 1.0 mM, fixed statin concentrations 0, 150, 300 and 450 µM) | hAK1 inhibition ([2]; RVS at a concentration above 200 μM) [%] | Effect on the AKst enzymatic activity [4] | Kd ([1]; 37 °C) [µM] |
| --- | --- | --- | --- | --- | --- | --- | --- | --- | --- | --- | --- | --- |
| CC(C)c1nc(N(C)S(C)(=O)=O)nc(-c2ccc(F)cc2)c1/C=C/[C@@H](O)C[C@@H](O)CC(=O)O [RVS, Rosuvastatin] | 9.2 ± 1.5 | 16.8 ± 1.8 | 18.9 ± 3.2 | 166 ± 20 | 89 ± 15 | – | – | – | noncompetitive | 90 | not found any inhibitory effect | – |
| CCC(C)(C)C(=O)O[C@H]1C[C@@H](C)C=C2C=C[C@H](C)[C@H](CC[C@@H]3C[C@@H](O)CC(=O)O3)[C@H]21 [SVS, Simvastatin] | 6.6 ± 1.2 | 10.9 ± 1.6 | 15.2 ± 2 | 5.5 ± 1.2 | 3.1 ± 0.5 | – | – | – | – | – | not found any inhibitory effect | 15.2 ± 2 |
